For one test, the system named is EGFR. Nature of the test: EGFR tyrosine phosphorylation (EGFR activation) in primary human keratinocytes. It counts as cell-based. As to conditions: human primary keratinocytes treated before UV irradiation (extracts: 16 hours, 50 mJ/cm2, 30 minutes post irradiation). How it is done: With reference to FIG. 3, UV-induced EGFR tyrosine phosphorylation is shown to be ligand-independent and mediated by oxidative inhibition of RPTP-κ in primary human keratinocytes. Shown in panel A, primary human keratinocytes were treated with control IgG1 or EGFR antibody LA1 (1 μg/mL), which blocks ligand binding, as indicated. Cells were then treated with vehicle (CTRL), or EGF (10 ng/mL) for 10 min, or UV irradiated (50 mJ/cm^2) and harvested 15 min post irradiation. Whole cell lysates were subjected to Western analysis for total EGFR and tyrosine-phosphorylated EGFR. Levels of immunoreactive EGFR were quantified by chemifluorescent detection. Results are mean±S.E. of three independent experiments; *, p<0.05. […] Shown in panel B, human keratinocytes were UV-irradiated (50 mJ/cm^2), and whole cell lysates were prepared at the indicated times. RPTP-κ and β-actin (internal control) were detected by Western blot, and quantified by chemifluorescent detection. Results are mean±S.E. of three independent experiments; *, p<0.05. […] Shown in panel C, primary human keratinocytes were mock (No UV) or UV irradiated (50 mJ/cm^2), and whole cell lysates were prepared 5 min post-UV irradiation. RPTP-κ was immunoprecipitated, and phosphatase activity was determined using a tyrosine-phosphorylated EGFR peptide as substrate. Phosphatase activity was normalized to RPTP-κ protein content in the immunoprecipitates, which was quantified by Western analysis using chemifluorescent detection. Results are mean±S.E. of three independent experiments; *, p<0.05. […] Endogenous RPTP-κ was immunoprecipitated, and assayed for activity in buffer containing dithiothreitol to reduce oxidized RPTP-κ to restore enzymatic activity, using a tyrosine-phosphorylated EGFR peptide as substrate. Results are mean±S.E. of three independent experiments; *, p<0.05. Shown in panel E, RPTP-κ was immunoprecipitated from mock or UV-irradiated human keratinocytes, and the immunoprecipitates were treated with DTT to reduce oxidized RPTP-κ, as described above for panel C. Reduced RPTP-κ was irreversibly oxidized by pervanadate, and oxidized (OX-PTP) and total RPTP-κ were detected by Western blot, using specific antibodies. Results are mean±S.E. of three independent experiments; *, p<0.05.
With reference to FIG. 4, knockdown of RPTP-κ is shown to increase EGFR tyrosine phosphorylation in primary human keratinocytes. Shown in panel A, human keratinocytes were transfected with scrambled control (CTRL) or RPTP-κ siRNA. Two days post-transfection, whole cell lysates were prepared and analyzed for RPTP-κ and β-actin (internal control) proteins by Western blot. Results are mean±S.E. of three independent experiments; *, p<0.05. […] Shown in panel B, two days after transfection with control (CTRL) or RPTP-κ siRNA, keratinocytes were UV irradiated (50 mJ/cm2). Whole cell lysates were prepared 15 min post-UV irradiation and analyzed for total EGFR and tyrosine-phosphorylated EGFR Western blot. Results are mean±S.E. of three independent experiments; *, p<0.05. […] Shown in panel C, keratinocytes were transfected with control (CTRL) or RPTP-κ siRNA and treated with control IgG or neutralizing anti-EGFR antibody. Two days post-transfection, whole cell lysates were prepared and total and tyrosine-phosphorylated EGFR were quantified by ELISA. Results are mean±S.E. of three independent experiments; *, p<0.05.
With reference to FIG. 7, primary adult human keratinocytes were treated with Laminaria japonica extract (LJE) or Porphyra haitanensis extract (PHE) for 16 hours prior to exposure to ultraviolet (UV) irradiation (50 mJ/cm2). Cells were analyzed for phosphorylated epidermal growth factor receptor (EGFR) and total EGFR by Western analyses 30 minutes post irradiation. […]

The target in test [1] is RPTP-κ glutathione S-transferase fusion protein (Homo sapiens, UniProt Q15262). As to conditions: 100 μM H2O2, room temperature 30 min; FIG. 1A.
Chain of RPTP-κ glutathione S-transferase fusion protein (Q15262 775-1439 limits assumed): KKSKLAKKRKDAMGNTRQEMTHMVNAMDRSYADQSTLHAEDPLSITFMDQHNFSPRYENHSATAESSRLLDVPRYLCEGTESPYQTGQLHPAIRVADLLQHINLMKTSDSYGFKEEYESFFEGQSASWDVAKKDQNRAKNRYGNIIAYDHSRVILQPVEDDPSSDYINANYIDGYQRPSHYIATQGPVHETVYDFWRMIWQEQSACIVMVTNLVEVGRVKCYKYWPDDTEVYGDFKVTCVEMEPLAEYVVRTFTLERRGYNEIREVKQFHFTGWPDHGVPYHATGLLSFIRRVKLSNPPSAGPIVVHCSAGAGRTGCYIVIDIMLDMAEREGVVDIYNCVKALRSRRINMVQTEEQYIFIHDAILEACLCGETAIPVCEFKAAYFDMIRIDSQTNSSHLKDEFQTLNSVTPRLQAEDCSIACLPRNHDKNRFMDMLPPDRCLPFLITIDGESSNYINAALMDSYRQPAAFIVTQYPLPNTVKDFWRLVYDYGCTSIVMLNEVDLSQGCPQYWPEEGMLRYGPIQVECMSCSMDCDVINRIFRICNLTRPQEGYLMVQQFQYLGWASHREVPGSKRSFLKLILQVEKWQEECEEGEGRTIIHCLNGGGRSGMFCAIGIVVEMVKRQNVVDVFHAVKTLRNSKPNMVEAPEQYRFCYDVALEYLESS
The target in a further test is purified EGFR (Homo sapiens, UniProt P00533). The note with it: EGFR with EGF and ATP/Mg2+, H2O2 at room temperature 30 min; FIG. 1B.
Chain of purified EGFR (P00533 25-1210): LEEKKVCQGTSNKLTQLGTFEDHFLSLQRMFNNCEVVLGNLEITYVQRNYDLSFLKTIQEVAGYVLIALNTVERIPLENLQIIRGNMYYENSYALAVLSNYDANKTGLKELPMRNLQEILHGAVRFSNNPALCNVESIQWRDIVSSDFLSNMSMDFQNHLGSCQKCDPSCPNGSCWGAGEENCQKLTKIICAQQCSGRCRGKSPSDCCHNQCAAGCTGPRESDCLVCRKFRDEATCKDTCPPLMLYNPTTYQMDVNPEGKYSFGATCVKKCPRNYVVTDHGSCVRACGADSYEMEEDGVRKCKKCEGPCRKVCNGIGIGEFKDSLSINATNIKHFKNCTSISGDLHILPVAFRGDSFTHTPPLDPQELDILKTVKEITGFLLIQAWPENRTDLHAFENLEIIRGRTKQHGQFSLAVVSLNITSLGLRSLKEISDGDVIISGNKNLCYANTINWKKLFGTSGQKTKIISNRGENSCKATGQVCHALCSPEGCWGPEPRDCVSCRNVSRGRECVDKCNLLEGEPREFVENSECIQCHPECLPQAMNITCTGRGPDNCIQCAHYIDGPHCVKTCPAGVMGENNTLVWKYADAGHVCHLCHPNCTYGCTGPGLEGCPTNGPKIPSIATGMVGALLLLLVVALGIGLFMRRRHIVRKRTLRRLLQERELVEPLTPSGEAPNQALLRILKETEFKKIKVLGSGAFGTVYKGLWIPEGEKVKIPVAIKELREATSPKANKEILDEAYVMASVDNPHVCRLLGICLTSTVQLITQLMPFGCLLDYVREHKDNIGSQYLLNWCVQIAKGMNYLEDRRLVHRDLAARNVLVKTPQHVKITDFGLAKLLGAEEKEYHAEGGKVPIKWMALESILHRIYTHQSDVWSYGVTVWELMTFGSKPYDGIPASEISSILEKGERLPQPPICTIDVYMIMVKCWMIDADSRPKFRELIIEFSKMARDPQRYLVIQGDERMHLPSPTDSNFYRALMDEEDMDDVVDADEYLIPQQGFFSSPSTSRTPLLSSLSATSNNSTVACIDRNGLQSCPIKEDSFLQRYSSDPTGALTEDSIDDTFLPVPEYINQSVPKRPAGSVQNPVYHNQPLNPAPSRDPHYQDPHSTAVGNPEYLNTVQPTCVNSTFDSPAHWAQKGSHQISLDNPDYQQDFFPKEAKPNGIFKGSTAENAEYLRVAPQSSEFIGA
Another test concerns the target RPTP-κ and EGFR (Homo sapiens, UniProt Q15262). As to conditions: purified RPTP-κ and EGFR together, H2O2 100 μM, room temperature 30 min; FIG. 1C.

Structures are written as SMILES.

Chain of RPTP-κ and EGFR (Q15262 775-1439 limits assumed): as the sequence (Q15262 775-1439 limits assumed) above

Turning to `O=C(/C=C/c1ccc(O)c(O)c1)OCCc1ccccc1` [CAPE, Caffeic acid phenethyl ester], the “UV irradiation-induced EGFR activation” value with EGFR was “no effect”. In the case of `OO` [H2O2, hydrogen peroxide], in test [1], the “loss of RPTP-κ activity” value turned out to be 80%. Also, at purified EGFR, the “effect on tyrosine phosphorylation of purified EGFR” value is “no direct effect”. The EGFR tyrosine phosphorylation entry at RPTP-κ and EGFR was “increased to the level observed in the absence of RPTP-κ”. For the compound `CC1=NN(c2ccccc2)C(=O)C1` [MCI-186, 3-Methyl-1-phenyl-2-pyrazolin-5-one], the “UV irradiation-induced EGFR activation” value in the test with EGFR was “no effect”.

`COC1=C(OC)C(=O)C(CCCCCCCCCC[P+](c2ccccc2)(c2ccccc2)c2ccccc2)=C(C)C1=O` [Mito Q10]: the “UV irradiation-induced EGFR activation” value with EGFR is “no effect”. Still for that read-out and setting: to `CC(=O)N[C@@H](CS)C(=O)O` [N-Acetyl cysteine] belongs “no effect”.

For the compound `Oc1ccc(C=Cc2cc(O)cc(O)c2)cc1` [Resveratrol], the “UV irradiation-induced EGFR activation” value with EGFR is given as “no effect”; with EGFR (listed as resveratrol), “did not exhibit activity”. `CC1=C(C)C(=O)C(CC[C@](C)(O)CCC[C@H](C)CCC[C@H](C)CCCC(C)C)=C(C)C1=O` [Tocopherylquinone, d-alpha]: the “UV irradiation-induced EGFR activation” value with EGFR is given as “no effect”.

Values taken from patent US7892777B2, “Methods for measuring whether a treatment affects RPTP-κ activity” (The Regents Of The University Of Michigan, priority 2007, dated 2011).
